Laboratory results published in patent EP0533724B1, “CALCIUM CITRATE MALATE COMPOSITION” (THE PROCTER & GAMBLE COMPANY, priority 1990, dated 1991).

Assay: physchem
Conditions: water
Excerpt: The exact method for determining this is described hereinafter.

`O=C(O)CC(O)C(=O)O` (stereo not shown) [calcium malate] gave a solubility at 0.5 h of 660 mg/mL.
